The assay concerns Mycobacterium tuberculosis variant bovis. In words: Antibacterial activity against Mycobacterium bovis BCG assessed as bacterial growth inhibition. It is filed as functional.

Converted amounts (≈) assume the structure as drawn.

What is called MIC is the least concentration at which growth counts as inhibited. Turning to `O=C(NCCNC(=O)c1ccc2c(c1)B(O)OC2)c1ccc2c(c1)B(O)OC2`, the MIC was determined as 0.78 µM (≈ 0.296 µg/mL).
For the compound `O=C(NCCCOCCOCCOCCCNC(=O)c1ccc2c(c1)B(O)OC2)c1ccc2c(c1)COB2O`, the MIC turned out to be 0.39 µM (≈ 0.211 µg/mL).
Under `O=C(NCCOCCOCCNC(=O)c1ccc2c(c1)B(O)OC2)c1ccc2c(c1)COB2O` stands 0.39 µM (≈ 0.183 µg/mL).
